According to patent US6294568A, “5-arylpyrrole derivatives” (priority 1997, dated 2001):

Legend:
[1] = test system: pain threshold of brewer's yeast inflamed hind paw; assay: Analgesic Action Test (Randall et al.); assay type: in vivo, SD rats; details: 3 mg/kg oral, 3 hours
Experimental: SD rats (6 rats per group) fasted overnight were employed for the test. After the measurement of pain threshold values of the left and right hind paws twice using an analgesimeter, the rats were injected subcutaneously with 0.1 ml of 20% brewer's yeast solution at the plantar area of the right hind paw to elicit inflammation. Two hours after the elicitation of inflammation, the pain threshold values of the left and right hind paws were measured and, immediately after the measurement, the test samples were administered orally to the rats. Three hours after the administration, the pain threshold values of the left and right hind paws were measured. […] The dosage amount of each of the test samples was 3 mg/kg.
Pain threshold value rising rate (%)=((pain threshold value of 3 hours after drug administration-pain threshold value of 2 hours after yeast administration)/(pain threshold value before yeast administration-pain threshold value of 2 hours after yeast administration))×100
Pain threshold value fluctuation rate (%)=(1 -(pain threshold value of 3 hours after drug administration/pain threshold value of 2 hours after […]

Human COX-1 = molecular target: T1, Human COX-1 (Homo sapiens, UniProt P23219); assay: Human COX-1 Inhibitory Activity Test (TXB2 in blood); assay type: cell-based; details: IC50 from Hill Plot
T1 construct: endogenous in cells; host or cells: whole blood of a healthy human donor (own knowledge: TXB2 of clotting blood comes from platelet COX-1)
T1 sequence (P23219 24-599): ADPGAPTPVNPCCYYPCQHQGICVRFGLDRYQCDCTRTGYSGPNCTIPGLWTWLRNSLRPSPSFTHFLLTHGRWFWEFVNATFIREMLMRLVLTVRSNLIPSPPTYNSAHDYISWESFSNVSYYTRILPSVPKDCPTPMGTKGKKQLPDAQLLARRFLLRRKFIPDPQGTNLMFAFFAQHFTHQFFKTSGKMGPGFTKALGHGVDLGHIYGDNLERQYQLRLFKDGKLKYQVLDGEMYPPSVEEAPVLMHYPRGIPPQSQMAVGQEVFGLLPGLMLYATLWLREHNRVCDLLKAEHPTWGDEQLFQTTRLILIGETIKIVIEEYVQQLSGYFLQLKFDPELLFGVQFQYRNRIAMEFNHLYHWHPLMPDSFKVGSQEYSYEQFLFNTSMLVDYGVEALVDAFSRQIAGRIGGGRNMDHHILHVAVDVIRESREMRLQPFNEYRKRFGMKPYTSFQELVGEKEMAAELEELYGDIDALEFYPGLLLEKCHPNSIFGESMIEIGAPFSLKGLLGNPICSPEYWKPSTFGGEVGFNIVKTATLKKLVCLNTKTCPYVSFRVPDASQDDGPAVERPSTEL
Experimental: COX-1 and COX-2 activities were measured according to the method of Patrignani et al. (J. Pharm. Exp. Ther. Vol. 271, 1705 (1994)).
(1) COX-1 activity was measured in the following procedure. […] The serum obtained by 10 minutes of centrifugation at 2000 rpm at 4° C. was stored at -40° C. until the measurement of the amount of thromboxane B2 (TXB2). The test samples, which had been dissolved in ethanol and diluted to the specified concentrations, were previously dispensed into the glass test tubes, and the solvent was evaporated to dryness by Centrifugal Vaporizer (CVE-200D, manufactured by Tokyo Rika Mfg. Co., Ltd.) so that the test samples were added to the plasma.
(3) The measurement for the TXB2 content was conducted in the following procedure. In a part of a 96 well plate coated with anti-rabbit IgG antibody, 2 wells were allotted respectively to blank well, Non-specific Binding (NSB) well, Maximum Binding (B0) well, standard wells at 7 concentrations of TXB2 (1000 pg/ml) in doubling dilution ranging from 1000-15.6 pg/ml. The rest of the wells were used for the measurement of the samples. EIA buffer was added to the NSB wells (100 μl ) and B0 wells (50 μl), respectively. 50 μl of each of the standard dilution was added in an order from thinner to thicker concentrations. Each of the samples was added to the rest of the wells in an amount of 50 μl. Then, 50 μl of TXB2 tracer was added to each of the wells except for the blank wells. Further, 50 μl of TXB2 antibody was added to each of the wells except for the NSB wells and blank wells, then the well plate was covered with a plastic film and the reaction continued for 18 hours at room temperature. When the reaction was terminated, the wells were washed 5 times with a wash buffer. 200 μl of Elman's reagent was added to each of the wells and then the well plate was covered with a plastic film and developed for 60 minutes in a dark place. The absorbance at 405 nm was measured by an Immuno Reader (NJ-2000, manufactured by Nippon Intermed Co., Ltd.). From the measurement result, %B/B0 was calculated and, applying it to the approximation formula of Hill Plot, the concentration of the samples was determined to be 2,000 times concentration. […]

Brewer's Yeast Fever = assay: Antipyretic Action Test With Respect To Brewer's Yeast Fever; assay type: in vivo, rats
Experimental: The antipyretic action was measured as described in the following. A sensor was inserted into the rectum of each rats and the body temperature of one hour after the insertion was recorded as the basal body temperature. The rats were injected subcutaneously with 2 ml/body of 20% brewer's yeast at the region of back and, 18 hours after the injection, the intrafebrile body temperatures were measured. Rats who had shown not less than 0.75° C. of body temperature elevation were selected to whom the test samples was administered orally. The body temperatures of the selected rats were measured every one hour for the following 5 hours. The dosage of each of the test samples was 10 mg/kg.

carrageenan footedema = assay: Carrageenan Footedema Suppression Test; assay type: in vivo, SD rats; details: oral; paw volume three hours after carrageenan administration
adjuvant arthritis = assay: Rat Adjuvant Arthritis Test; assay type: in vivo, SD rats; details: 3 mg/kg, oral
Experimental: SD rats were injected subcutaneously with […] liquid paraffin/rat of H-37RA strain in the plantar area of the right hind paw. Only liquid paraffin (0.05 ml) was administered to control groups in the same manner. 21 days after the administration, rats showing the evidence of arthritis were selected and divided into groups having equal mean left and right hind paw volumes, and also having equal arthritis scores. From the date of the grouping, the test samples were administered orally to the rats once daily for 7 days (only the solvent was administered to the negative and positive control groups). The degree of the arthritis was quantitatively evaluated by measuring the volumes of the left and right hind paws by using a volume meter (manufactured by Muromachi Kikai) and by scoring the degree of arthritis by macroscopic observation as illustrated in Table 2. According to the scoring criteria in Table 2, 15 is a perfect score.
The dosage of each of the test samples was 3 mg/kg.

## Cc1cc(-c2ccc(F)cc2)c(-c2ccc(S(C)(=O)=O)cc2)[nH]1 [Preparation Example 1, 4-(4-fluorophenyl)-2-methyl-5-(4-methylsulfonylphenyl)-1H-pyrrole]
[1]; Left Hind Paw (non-inflammatory paw)
  Pain Threshold Value Fluctuation Rate: 2.47%
[1]; Right Hind Paw (inflammatory paw)
  Pain Threshold Value Rising Rate: 33.3%
Human COX-1
  IC50: 649 µM
Brewer's Yeast Fever; 10 mg/kg oral, 1 hour after
  Body temperature 1 Hour After: 37.98 °C
Brewer's Yeast Fever; 10 mg/kg oral, 3 hours after
  Body temperature 3 Hours After: 37.10 °C
Brewer's Yeast Fever; 10 mg/kg oral, 5 hours after
  Body temperature 5 Hours After: 37.13 °C
Brewer's Yeast Fever; 18 hours after yeast injection, before administration, 10 mg/kg group
  Intrafebrile Body Temperature: 39.08 °C
Brewer's Yeast Fever; one hour after sensor insertion, before yeast, 10 mg/kg group
  Basal Body Temperature: 37.54 °C
Carrageenan footedema
  Edematization Suppression rate: 35.5%
Adjuvant arthritis; day 21 (starting date of administration), once daily
  Right Hind Paw Volume day 21: 3.86 mL
Adjuvant arthritis; day 27, once daily for 7 days
  Right Hind Paw Volume day 27: 2.96 mL
